Laboratory results published in US20220411362A1, “DITERPENOID COMPOUNDS THAT ACT ON PROTEIN KINASE C (PKC)” (K-Gen, Inc., priority 2019, published 2022).
Like-named read-outs stand apart in the source and are kept apart here.

Tests used:
[1] = tested on: phosphorylation of PKCμ, PKCδ and Erk1/2 in A549 lung cancer cells; format: cell-based; details: 0.3 μM, 30 minutes, Western blot (FIG. 1)
Protocol: Cells were then treated with different drugs at indicated concentrations for 30 minutes. […] Imagequant LAS4000 (GE) was used to scan membranes if secondary antibodies anti-mouse IgG HRP conjugate or anti-rabbit IgG HRP conjugate (dilutions from 1:2000-1:10000) were used. For ProteinSimple Wes system, manufacture's procedure was followed (ProteinSimple 12-230 kDa Wes Separation Module) for sample preparation, loading, running, and data analysis.
Phosphorylation of these sites has been linked to acute activation or catalytic activity of the PKC isoforms and Erk1/2. High level of phosphorylation indicates strong activation.

C1b domain of human PKCα = molecular target: T1, C1b domain of human PKCα (Homo sapiens, UniProt P17252); test: biochemical; format: binding; details: 3H-PDBu competition
T1 construct: Genes encoding C1b domains of human PKCα, δ, ε, θ, and PKD1 (PKCμ) were synthesized; made in house; host or cells: E. coli BL21(DE3)
Method in brief: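 Competitive binding against 3H-PDBu tracer used recombinant GST-C1b fusion protein expressed in E. coli. Incubation ran 10 min at 37°C with shaking, then 20 min on ice, followed by filtration and scintillation counting of trapped 3H-PDBu. Affinity was derived using each protein preparation's experimentally determined Kd for 3H-PDBu.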

[2] = tested on: KP-4 (Pancreatic) cell line; test: Proliferation of KP-4; format: cell-based
Protocol: (§1) The diterpenoid compounds were tested in A549, a non-small cell lung cancer cell line harboring a K-Ras activating mutation. Briefly, A549 cells at a density of 1,000 cells/well were seeded in 96-well plates and incubated at 37° C. for 24 hours. A series of different concentrations of compound stocks (500×) were prepared by 3-fold serial dilution in DMSO. These compounds were further diluted in culture media and then added to cells so that the final DMSO concentration was not exceeding 0.25%. After 96 hours of incubation, 50 μL of CellTiter Glo reagent (Promega) was added to each well and luminescence was measured after 10 minutes using EnVision (PerkinElmer). Luminescence from cells treated with DMSO alone was set as Max and % of inhibition was calculated as follows: Inhibition %=(Max−Sample value)/Max×100. Data was analyzed using XL-fit software (ID Business Solutions Ltd.) and IC50, relative IC50, and % of top inhibition was calculated. Some of the compounds in this disclosure were very potent in blocking proliferation of A549 lung cancer cells at low nM range. In addition, potency of inhibiting A549 proliferation correlated well with its binding affinity to PKCs for this series of compounds. In other words, higher affinity binders had stronger inhibitory effects on A549 proliferation. This further support the notion that activation, rather than inhibition, of certain PKC isoforms is required to block proliferation of cancer cells, some of which may harbor K-Ras mutations. This is in sharp contrast to previous literature and common belief that inhibition of PKC is necessary to block cancer cell growth (Kang, 2014, New Journal of Science, 2014:1-36). Data presented here is in agreement with recent findings that many loss-of-function but not gain-of-function mutations of PKC isoforms have been identified in many human cancers (Antal et al., 2015, Cell, 160:489-502).
(§2) The compounds in this disclosure were tested for their potency in blocking proliferation of a few other cancer cells lines, including K-Ras mutant pancreatic cell lines Panc2.13 and KP-4, leukemia cell line HL-60, and lymphoma cell lines Namalwa and Mino. Similar procedures as in Example 67 were followed. Initial cell numbers seeded in 96-well plates were different for different cell lines: 3000 cells/well for Panc2.13; 800-1000 cells/well for KP-4; 5000 cells/well for HL-60; 5000-10000 cells/well for Namalwa and Mino. A ratio ratio of (IC50 of K01)/(IC50 of compound) (data in parenthesis in Table 5) was used to normalize the compound potency from different assay batches to a common comparator […].

[3] = tested on: HL-60 (Leukemia) cell line; test: Proliferation of HL-60; format: cell-based
Method in brief: (§3)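 After a 24 h settling period at 37° C, each line received compound from a 3-fold serial series with DMSO capped at 0.25%. Incubation ran 96 h before CellTiter Glo reagent was added. Inhibition % = (Max − sample)/Max × 100, with Max from DMSO-treated cells.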

C1b domain of human PKCθ = molecular target: T2, C1b domain of human PKCθ (Homo sapiens, UniProt Q04759); test: Competitive 3H-PDBu binding to C1b domain of PKCθ
T2 construct: Genes encoding C1b domains of human PKCα, δ, ε, θ, and PKD1 (PKCμ) were synthesized; made in house; host or cells: E. coli BL21(DE3)
T2 sequence (Q04759 231-281 limits assumed): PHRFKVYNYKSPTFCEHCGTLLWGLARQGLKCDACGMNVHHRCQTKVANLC
Method in brief: (§4)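 Affinity was measured by competition with the radiotracer 3H-PDBu for recombinant human GST-C1b fusion proteins expressed in E. coli BL21(DE3). Incubation ran 10 minutes at 37° C with shaking, then 20 minutes on ice, and filter-trapped 3H-PDBu was counted by scintillation. IC50 values were converted to Ki by Cheng-Prusoff using the experimentally determined Kd for each protein preparation.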

C1b domain of human PKCδ = molecular target: T3, C1b domain of human PKCδ (Homo sapiens, UniProt Q05655); test: Competitive 3H-PDBu binding to C1b domain of PKCδ; details: Ki PKCδ, 3H-PDBu competition
T3 construct: Genes encoding C1b domains of human PKCα, δ, ε, θ, and PKD1 (PKCμ) were synthesized; made in house; host or cells: E. coli BL21(DE3)
Method in brief: as §4

[4] = tested on: Mino (Lymphoma) cell line; test: Proliferation of Mino; format: cell-based
Method in brief: as §3

[5] = tested on: Namalwa (Lymphoma) cell line; test: Proliferation of Namalwa; format: cell-based; details: for ratio of (IC50 of K01)/(IC50 of compound), Namalwa: value in parenthesis; for IC50: read-out: IC50 in μM Namalwa (Lymphoma)
Method in brief: as §3

[6] = tested on: Panc2.13 (Pancreatic) cell line; test: Proliferation of Panc2.13; format: cell-based; details: for ratio of (IC50 of K01)/(IC50 of compound), Panc2.13: value in parenthesis; for IC50: read-out: IC50 in μM Panc2.13 (Pancreatic)
Protocol: as §1, §2

PANC1 cells = test: Sphere formation assay (cancer stemness); format: cell-based; details: Homo sapiens, PANC-1, read-out: concentration exhibiting at least 50% inhibition on the sphere forming efficiency
Protocol: A group of diterpenoid compounds of the present disclosure were tested to assess their effects on blocking formation of spheres from cancer cell lines such as PANC1, a K-Ras mutant pancreatic cell line. Briefly, PANC1 cells were harvested, re-suspended as single cell suspensions, counted and seeded into Ultra Low Attachment Culture 96-well plate (Corning, Cat #3474) at 100 cells/well in 100 μl of complete media (with 10% FBS) containing 2% Matrigel (Corning, Cat #354234) and DMSO or compounds. Six replicates per condition were seeded. The seeded cells were placed in the 37° C. tissue culture incubator. 10 μl of low serum containing media (with 0.1% FBS) was added to each well every week. Spheres formed after 3-4 weeks were counted. Sphere forming efficiency was expressed as percentage of # of spheres/# of cells seeded.

[7] = molecular target: T4, C1b domain of human PKD1 (PKCμ) (Homo sapiens, UniProt Q15139); test: biochemical; format: binding
T4 construct: Genes encoding C1b domains of human PKCα, δ, ε, θ, and PKD1 (PKCμ) were synthesized; made in house; host or cells: E. coli BL21(DE3)
T4 sequence (Q15139 270-320 limits assumed): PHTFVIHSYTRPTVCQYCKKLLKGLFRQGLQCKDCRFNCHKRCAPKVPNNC
Method in brief: as §4

[8] = tested on: A549 non-small cell lung cancer cell line; test: Proliferation of A549 (CellTiter Glo); format: cell-based; details: Homo sapiens, read-out: IC50 μM (A549 Cell Line)
Method in brief: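 A549 cells (K-Ras mutant) seeded 1,000/well, 24 h at 37° C, then treated with 3-fold serial dilutions (final DMSO ≤0.25%) for 96 h. Viability by CellTiter Glo luminescence; % inhibition vs DMSO-only Max, curve-fit to give IC50, relative IC50 and % top inhibition.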

C1b domain of human PKCε = molecular target: T5, C1b domain of human PKCε (Homo sapiens, UniProt Q02156); test: Competitive 3H-PDBu binding to C1b domain of PKCε
T5 construct: Genes encoding C1b domains of human PKCα, δ, ε, θ, and PKD1 (PKCμ) were synthesized; made in house; host or cells: E. coli BL21(DE3)
Method in brief: as §4

[9] = tested on: phosphorylation of CaMKii at T286 in Panc1 cells; test: CaMKii phosphorylation in Panc1 cell line (Western blot); format: cell-based; details: 0.2 μM and 1 μM, 48 hours (FIG. 5)
Protocol: Panc1 (a pancreatic cancer cell line) cells (˜5-8 millions) were seeded in 10 cm dishes (or ˜2 millions in 6 cm dishes) and treated next day with prostratin (K-101, 0.2 μM and 1 μM) or 0.02 μM and […] of K101-C1347, -C134801, and -C134802 for 48 hours. Cells were then collected/lysed for Western blot analysis. Protein quantification, SDS-PAGE, and Western blot procedures were performed as described in Example 65, except that a different lysis buffer (1 ml of 10×TNE [20 mL 1M Tris pH7.5; 30 mL 5M NaCl; 2 mL 0.5M EDTA; 48 mL d2H2O], 1 ml of 10% NP40, 7.7 mL of dH2O, 100 μL of 10× Protease inhibitors, 100 μL of 10× Phosphatase inhibitors, and 10 μl DTT) was used. To assess the effect of diterpenoid compounds on CaMKii phosphorylation, a phospho-specific antibody P-CaMKii (T286) (Abcam, cat #32678) was used for detection. Phosphorylation of CaMKii at T286 is a marker for activation of CaMKii kinase in the Wnt/Ca^2+ signaling pathway when […] and thus a downstream marker for inhibition of K-Ras stemness (Wang et al., Cell. 2015, 163(5):1237-51).

[10] = Homo sapiens, KP-4, read-out: IC50 in μM KP-4 (Pancreatic)
[11] = Homo sapiens, HL-60, read-out: IC50 in μM HL-60 (Leukemia)
[12] = Homo sapiens, MINO, read-out: IC50 in μM Mino (Lymphoma)

T5 sequence (Q02156 242-292 limits assumed): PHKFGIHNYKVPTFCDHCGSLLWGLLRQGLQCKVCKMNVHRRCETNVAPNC
T3 sequence (Q05655 230-280 limits assumed): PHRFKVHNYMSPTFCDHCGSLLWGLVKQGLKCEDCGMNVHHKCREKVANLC

Row | SMILES | phosphorylation of PKC (PKD/PKCμ), PKCδ and Erk1/2 [1] | IC50 [2, 10] [µM] | ratio of (IC50 of K01)/(IC50 of compound), HL-60 ([3]; HL-60; value in parenthesis) | IC50 [3, 11] [µM] | Ki (C1b domain of human PKCθ) [nM] | Ki (C1b domain of human PKCδ) [nM] | IC50 [4, 12] [µM] | ratio of (IC50 of K01)/(IC50 of compound), Mino ([4]; Mino; value in parenthesis) | ratio of (IC50 of K01)/(IC50 of compound), Namalwa [5] | IC50 [5] [µM] | ratio of (IC50 of K01)/(IC50 of compound), Panc2.13 [6] | IC50 [6] [µM] | IC50 (PANC1 cells) [nM] | Ki [7] [nM] | IC50 ([8]; A549, 96 h) [µM] | Ki (C1b domain of human PKCε) [nM] | further results
1 | CC1=C[C@H]2[C@@]3(O)[C@H](C)C[C@]4(OC(=O)[C@@H](N)C5Cc6ccccc6C5)[C@H]([C@@H]3C=C(CO)C[C@]2(O)C1=O)C4(C)C [Compound K101-C1329] | induced high levels of phosphorylation | 0.06 to 0.1 | 1.79 | 0.03 to 0.06 | 5 to 10 | < 5 | 0.01 to 0.03 | 5.5 | 1.6 | 0.03 to 0.06 | 5.82 | 0.1 to 0.2 | ≤ 150 | < 5 | 0.06 to 0.1 | 1 to 30 | Ki (C1b domain of human PKCα; Ki PKCα): 30 to 60 nM
2 | CC1=C[C@H]2[C@@]3(O)[C@H](C)C[C@]4(OC(=O)[C@@H](N)CCCc5ccccc5)[C@H]([C@@H]3C=C(CO)C[C@]2(O)C1=O)C4(C)C [Compound K101-C1319] | induced high levels of phosphorylation | 0.1 to 0.2 | 1.79 | 0.03 to 0.06 | 5 to 10 | < 5 | 0.01 to 0.03 | 6 | 1.53 | 0.03 to 0.06 | 3.65 | 0.2 to 0.6 | ≤ 1500 | < 5 | 0.06 to 0.1 | 30 to 60 | Ki PKCα (C1b domain of human PKCα): E (E=>60 nM and ≤10 nM)
3 | CC(=O)O[C@@]12C[C@@H](C)[C@@]3(O)[C@@H](C=C(CO)C[C@]4(O)C(=O)C(C)=C[C@@H]34)[C@@H]1C2(C)C [Compound K101, prostratin, reference compound] | – | – | – | – | – | – | – | – | – | 0.06 to 0.1 | – | 0.6 to 1 | – | – | – | – | IC50 ([2]; Homo sapiens, KP-4; read-out: IC50 in μM KP-4 (Pancreatic)): 0.2 to 0.6 µM; IC50 ([3]; Homo sapiens, HL-60; read-out: IC50 in μM HL-60 (Leukemia)): 0.2 to 0.6 µM; phosphorylation of CaMKii at T286 [9]: induced phosphorylation of CaMKii at T286; IC50 ([4]; Homo sapiens, MINO; read-out: IC50 in μM Mino (Lymphoma)): 0.06 to 0.1 µM; IC50 (PANC1 cells; PANC1 single cell suspension, spheres counted after 3-4 weeks): ≤ 500 nM; IC50 ([8]; A549, 96 hours incubation, CellTiter Glo): 0.03 to 0.06 µM
